Laboratory results reported in publication PMC7536268, “Increased Antimicrobial Activity of Colistin in Combination With Gamithromycin Against Pasteurella multocida in a Neutropenic Murine Lung Infection Model” (Frontiers in Microbiology, 2020).
Where a SMILES comes first, the peptide text is derived from it. Bridges are numbered along the chain shown (N, C = ends). [ ]: non-standard residue; d: D form. The star is where a group is joined. X1 = CC[C@H](C)CCCCC(=O)*; Dab = NCC[C@H](N)C(=O)O

Tests used:
[1] = system: Pasteurella multocida strains; test: Checkerboard combination susceptibility testing (MIC in combination, FIC index); format: cell-based; conditions: colistin combined with gamithromycin, 37°C 24 h
Protocol: The susceptibility of the selected P. multocida isolates and the quality control isolate (ATCC 25922) to colistin, gamithromycin, cefquinome, enrofloxacin, tilmicosin, tylosin tartrate, and florfenicol alone was determined using the microdilution method in broth (conducted in triplicate) according to the guiding principles of the CLSI. Based on the action mechanism of each drug, the antimicrobial activity of colistin or cefquinome (drug A) in combination with gamithromycin, enrofloxacin, tilmicosin, tylosin tartrate, or florfenicol (drug B) was determined with the checkerboard method, according to the minimal inhibitory concentration (MIC) of each drug. Briefly, 50 μL of MH II broth was added to each well, and 50 μL of the indicated concentration of colistin or cefquinome was added into the first well of each line. This was followed by multiproportion dilution. Next, 50-μL samples of different concentrations of gamithromycin or the other drugs mentioned above were added to the dilution medium, and a 100 μL inoculum with a cell density of ∼1 × 10^6 colony-forming units (CFU)/mL was added to each well. The plates were then incubated at 37°C for 24 h. According to the EUCAST definitive document E.Def 1.2 ([Mccullough, 2010]), the fractional inhibitory concentration (FIC) index for combined administrations was defined as the sum of the FIC of drug A and the FIC of drug B, where FIC is the MIC of the drug combined with other drugs, divided by the MIC of the drug alone.

[2] = system: Pasteurella multocida strains (D18, T5, and WJ11); test: In vitro postantibiotic effect (PAE); format: cell-based; conditions: 1 h exposure
Protocol: For determination of the postantibiotic effect (PAE) of colistin, gamithromycin was tested on D18, T5, and WJ11 isolates alone and in combination with colistin, and a 1 × 10^8 CFU/mL inoculum of each isolate was used after overnight incubation in MH II broth. A 0.5-mL sample of the inoculum and 0.5 mL of colistin or gamithromycin alone at 1 × or 4 × MIC, was added to 4 mL of fresh broth and incubated in a 37°C water bath for 1 h. Meanwhile, the same operation was performed for combinations of colistin at 0.25–0.5 mg/L and gamithromycin at 0.125–0.25 mg/L. Controls without drugs were included. Each inoculum was diluted 1000-fold after incubation for 1 h, and this was the starting point for PAE testing (0 h). Aliquots of 0.1 mL were withdrawn to count the bacterial burden as described above in time-kill tests at 0, 1, 2, 4, and 6 h. PAE was calculated using the equation: PAE = T – C, where T and C represent the time taken for drug-exposed (T) and control (C) cultures to increase by 1 log10 after drugs were removed ([Mackenzie and Gould, 1993]).

[3] = system: Pasteurella multocida strains (D18, T5, and WJ11); test: In vivo pharmacodynamics, neutropenic murine pneumonia model
Source text: (§1) Five-week-old specific-pathogen-free female Institute of Cancer Research (ICR) mice weighing 20–22 g obtained from the Laboratory Animal Center of the Southern Medical University (SCXK 2016-0041, Guangzhou) were used in this experiment. Animals were maintained in the Laboratory Animal Center of the South China Agricultural University (SYXK 2014-0136, Guangzhou) in accordance with the National Standards for Laboratory Animals in China (GB 14925–2010). Neutropenia was generated by intraperitoneal injection of cyclophosphamide [TCI (Shanghai) Development Co., Ltd., Shanghai, China) 4 days before the 150-mg/kg dose and 1 day before the 100-mg/kg dose prior to lung infection ([Vogelman et al., 1988]). Three strains, namely, D18, T5, and WJ11, were incubated in MH II broth. Experimental mice were anesthetized via inhalation of isoflurane and then were hung on an adjustable-angled bracket by hooking their teeth. Endotracheal intubation was performed by importing 50 μL of a logarithmic-phase bacterial suspension (10^8–10^9 CFU/mL) into the lung through the larynges rimae using a preinserted tracheal tube ([Zhou et al., 2018]). All experimental protocols were approved by the Committee on the Ethics of Animals of South China Agricultural University.

[4] = PK in plasma and lung tissue of neutropenic lung-infected mice; conditions: for AUC(0-t): Plasma AUClast; for Cmax: Plasma Cmax
Source text: as §1
Pharmacokinetics analysis of colistin (2.5 and 5 mg/kg), gamithromycin (1.5, 3, 6, 12, and 24 mg/kg) alone and in combination (2.5 mg/kg colistin, 3 mg/kg gamithromycin) was performed in 176 neutropenic lung-infected ICR mice following subcutaneous administration (SC). Plasma and lung tissue samples were withdrawn at the specified time point (four mice at each time point).
The concentration of colistin and gamithromycin in plasma and lung tissue was measured using a previously reported method ([Ma et al., 2008]; [Huang et al., 2010]; [Fu et al., 2018]). The limit of quantification for both colistin and gamithromycin was 0.01 mg/L in plasma and 0.2 μg/g in lung tissue. Recovery of colistin and gamithromycin in plasma and lung ranged between 88.2 and 113.1%. All inter- and intra-assay coefficients of variation were <10%. PK parameters in plasma and lung samples were estimated using a non-compartmental analysis method with WinNonlin software version 5.2.1 (Pharsight, St Louis, MO, United States).

[5] = system: Pasteurella multocida strains (D18, T5, and WJ11); test: Mutant prevention concentration (MPC); format: cell-based; conditions: drug alone, agar, 72 h, 37°C
Protocol: The bacteria-containing broth was centrifuged at 3500 g for 15 min and resuspended in fresh MH II broth to obtain a solution containing 3 × 10^10 CFU/mL of P. multocida. The agar plates were produced by adding different concentrations of colistin and gamithromycin alone or in combination into the Mueller-Hinton agar medium supplemented with sterile defibrinated sheep blood. Aliquots of 100-μL inoculum were plated on four agar plates containing the same concentration of drug(s). Mutant prevention concentration (MPC) was defined as the lowest concentration that prevented the growth of bacteria after 72 h of incubation at 37°C.

[6] = strain D18, 1 × MIC (colistin 32 mg/L, gamithromycin 0.5 mg/L)
[7] = strain T5, 1 × MIC (colistin 32 mg/L, gamithromycin 0.5 mg/L)
[8] = strain WJ11, 1 × MIC (colistin 1 mg/L, gamithromycin 0.5 mg/L)
[9] = colistin 2.5 mg/kg SC alone, neutropenic lung-infected mice, lung tissue
[10] = colistin 5 mg/kg SC alone, neutropenic lung-infected mice, lung tissue
[11] = female, ICR, mouse, in vivo, sc, 2.5 mg/kg, colistin 2.5 mg/kg SC alone, neutropenic lung-infected mice, total plasma
[12] = female, ICR, mouse, in vivo, sc, 2.5 mg/kg, given in combination SC (2.5 mg/kg colistin, 3 mg/kg gamithromycin), total plasma
[13] = female, ICR, mouse, in vivo, sc, 5 mg/kg, colistin 5 mg/kg SC alone, neutropenic lung-infected mice, total plasma
[14] = given in combination SC (2.5 mg/kg colistin, 3 mg/kg gamithromycin), lung tissue

With CCCN1C[C@H](C)[C@@H](O)[C@](C)(O)[C@@H](CC)OC(=O)[C@H](C)[C@@H](O[C@H]2C[C@@](C)(OC)[C@@H](O)[C@H](C)O2)[C@H](C)[C@@H](O[C@@H]2O[C@H](C)C[C@H](N(C)C)[C@H]2O)[C@](C)(O)C[C@H]1C [Gamithromycin] the “MIC (in combination)” value ([1]; strain CVCC 444) was 0.25 µg/mL, the “MIC (in combination)” value ([1]; strain D18) was 0.0625 µg/mL and the “MIC (in combination)” value ([1]; strain PmP2 (pig)) was 0.125 µg/mL. For the same compound, the “MIC (in combination)” value ([1]; strain PmP17 (pig)) was 0.0625 µg/mL, the “MIC (in combination)” value ([1]; strain T5) was 0.125 µg/mL and the “MIC (in combination)” value ([1]; strain WJ11) was 0.25 µg/mL. The “MIC (in combination)” value ([1]; strain WN71) was 0.25 µg/mL, the “MIC (in combination)” value ([1]; strain WW81) was 0.25 µg/mL and the “MIC (in combination)” value ([1]; strain XX12) was 0.0625 µg/mL. For the same compound, the PAE [2, 6] was 0.21 h, the PAE ([2]; strain D18, 4 × MIC) was 0.51 h and the PAE [2, 7] was 0.54 h. It also gave a PAE ([2]; strain T5, 4 × MIC) of 1.83 h, a PAE [2, 8] of 0.59 h and a PAE ([2]; strain WJ11, 4 × MIC) of 1.16 h. The “dose required for effective treatment” value ([3]; gamithromycin monotherapy every 12 h) was at least 24 mg/kg, the “time of Cmax in lung tissue” value ([4]; mouse, in vivo) was 0.25 to 1 h and the “Lung T1/2” value ([4]; mouse, in vivo, SD) was 1355 ± 111 min. For the same compound, the “Lung Tmax” value ([4]; mouse, in vivo, SD) was 39 ± 17.4 min, the “Plasma T1/2” value ([4]; mouse, in vivo, SD) was 731.4 ± 19.8 min and the “Plasma Tmax” value ([4]; mouse, in vivo, SD) was 27 ± 12.6 min. It also gave an MPC ([5]; strain D18) of 1 mg/L, an MPC ([5]; strain T5) of 1 mg/L and an MPC ([5]; strain WJ11) of 1 mg/L.
With CC[C@H](C)CCCCC(=O)N[C@@H](CCN)C(=O)N[C@H](C(=O)N[C@@H](CCN)C(=O)N[C@H]1CCNC(=O)[C@H]([C@@H](C)O)NC(=O)[C@H](CCN)NC(=O)[C@H](CCN)NC(=O)[C@H](CC(C)C)NC(=O)[C@@H](CC(C)C)NC(=O)[C@H](CCN)NC1=O)[C@@H](C)O [Colistin] (X1-[Dab]T[Dab][Dab][Dab][dL]L[Dab][Dab]T; lactam 4-C) the “MIC (in combination)” value ([1]; strain CVCC 444) was 0.125 µg/mL, the “MIC (in combination)” value ([1]; strain D18) was 0.25 µg/mL and the “MIC (in combination)” value ([1]; strain PmP2 (pig)) was 0.125 µg/mL. For the same compound, the “MIC (in combination)” value ([1]; strain PmP17 (pig)) was 0.125 µg/mL, the “MIC (in combination)” value ([1]; strain T5) was 0.125 µg/mL and the “MIC (in combination)” value ([1]; strain WJ11) was 0.125 µg/mL. For the same compound, the “MIC (in combination)” value ([1]; strain WN71) was 0.0625 µg/mL, the “MIC (in combination)” value ([1]; strain WW81) was 0.5 µg/mL and the “MIC (in combination)” value ([1]; strain XX12) was 0.125 µg/mL. It also gave a PAE [2, 6] of 0.98 h, a PAE ([2]; strain D18, 4 × MIC) of 3.79 h and a PAE [2, 7] of 0.29 h. For the same compound, the PAE ([2]; strain T5, 4 × MIC) was 2.83 h, the PAE [2, 8] was 0.96 h and the PAE ([2]; strain WJ11, 4 × MIC) was 2.34 h. For the same compound, the “in vivo PD outcome” value ([3]; colistin alone 2.5 or 5 mg/kg SC every 12 h, all three isolates, 24 h) was “failure to inhibit growth of bacteria”, the “Lung AUClast” value [4, 9] was 5.22 mg⋅h/kg and the “Lung Cmax” value [4, 9] was 3.37 mg/kg. For the same compound, the “Lung T1/2” value [4, 9] was 76.8 min, the “Lung Tmax” value [4, 9] was 30 min and the “Plasma Tmax” value ([4]; colistin 2.5 mg/kg SC alone, neutropenic lung-infected mice, total plasma, non-compartmental) was 30 min. For the same compound, the “Lung AUClast” value [4, 10] was 12.20 mg⋅h/kg, the “Lung Cmax” value [4, 10] was 5.54 mg/kg and the “Lung T1/2” value [4, 10] was 103 min. The “Lung Tmax” value [4, 10] was 45 min, the AUC(0-t) [4, 11] was 3510 ng·h/mL and the AUC(0-t) [4, 12] was 3880 ng·h/mL. The Cmax [4, 11] was 3140 ng/mL, the Cmax [4, 12] was 3330 ng/mL and the half-life ([4]; female, ICR, mouse, in vivo, sc, 2.5 mg/kg, Plasma T1/2, colistin 2.5 mg/kg SC alone, neutropenic lung-infected mice, total plasma) was 40.2 min. It also gave a half-life ([4]; female, ICR, mouse, in vivo, sc, 2.5 mg/kg, Plasma T1/2, given in combination SC (2.5 mg/kg colistin, 3 mg/kg gamithromycin), total plasma) of 36.6 min, a Tmax ([4]; female, ICR, mouse, in vivo, sc, 5 mg/kg) of 45 min and an AUC(0-t) [4, 13] of 10500 ng·h/mL. For the same compound, the Cmax [4, 13] was 6330 ng/mL, the half-life ([4]; female, ICR, mouse, in vivo, sc, 5 mg/kg, Plasma T1/2, colistin 5 mg/kg SC alone, neutropenic lung-infected mice, total plasma) was 49.8 min and the “Lung AUClast” value [4, 14] was 5.10 mg⋅h/kg. For the same compound, the “Lung Cmax” value [4, 14] was 2.94 mg/kg, the “Lung T1/2” value [4, 14] was 69.6 min and the “Lung Tmax” value [4, 14] was 30 min. For the same compound, the MPC ([5]; strain D18) was 128 mg/L, the MPC ([5]; strain T5) was 128 mg/L and the MPC ([5]; strain WJ11) was 64 mg/L.
